Where a name gives a salt, the structure may show the parent alone. A value given as a limit tells only on which side of the number the result lay.

The target of the experiment is T1, full-length USP7 (Homo sapiens, UniProt Q93009).
T1 construct: A 45 μl reaction volume containing full-length USP7 (0.5-1.0 nM)
T1 sequence (Q93009 whole entry): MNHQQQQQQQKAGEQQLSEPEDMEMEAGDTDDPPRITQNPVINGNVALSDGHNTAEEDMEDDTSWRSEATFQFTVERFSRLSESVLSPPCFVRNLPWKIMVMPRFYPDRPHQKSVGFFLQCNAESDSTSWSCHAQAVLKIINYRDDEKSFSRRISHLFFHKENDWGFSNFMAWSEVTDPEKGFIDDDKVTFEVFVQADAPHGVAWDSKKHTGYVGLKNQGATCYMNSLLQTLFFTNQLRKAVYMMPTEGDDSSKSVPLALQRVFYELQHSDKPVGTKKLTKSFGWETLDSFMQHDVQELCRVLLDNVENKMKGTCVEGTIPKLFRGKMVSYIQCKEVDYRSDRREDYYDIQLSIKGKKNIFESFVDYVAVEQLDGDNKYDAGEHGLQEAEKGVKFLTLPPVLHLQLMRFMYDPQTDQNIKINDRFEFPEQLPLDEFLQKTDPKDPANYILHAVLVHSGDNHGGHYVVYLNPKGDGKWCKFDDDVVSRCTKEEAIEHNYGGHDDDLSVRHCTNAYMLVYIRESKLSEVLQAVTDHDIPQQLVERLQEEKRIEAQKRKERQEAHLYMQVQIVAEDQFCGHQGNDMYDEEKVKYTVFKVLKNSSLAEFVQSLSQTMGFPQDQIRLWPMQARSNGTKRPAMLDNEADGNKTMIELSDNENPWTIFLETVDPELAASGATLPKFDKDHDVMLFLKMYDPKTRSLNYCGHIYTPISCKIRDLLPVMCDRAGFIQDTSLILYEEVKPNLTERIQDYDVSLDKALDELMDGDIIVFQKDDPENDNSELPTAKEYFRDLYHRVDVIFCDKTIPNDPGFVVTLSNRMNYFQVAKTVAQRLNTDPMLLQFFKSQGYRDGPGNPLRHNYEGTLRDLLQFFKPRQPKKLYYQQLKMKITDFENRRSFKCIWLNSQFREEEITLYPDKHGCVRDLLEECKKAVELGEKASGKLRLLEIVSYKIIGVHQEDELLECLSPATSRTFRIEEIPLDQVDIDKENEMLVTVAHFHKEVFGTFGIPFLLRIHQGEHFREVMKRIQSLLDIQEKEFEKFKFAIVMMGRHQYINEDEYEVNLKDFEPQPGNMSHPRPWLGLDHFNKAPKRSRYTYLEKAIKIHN
The experiment in a line: Enzymatic assay to determine IC50 of USP7 inhibitors (Ubiquitin-Rhodamine 110 cleavage). Format: biochemical. To be noted: full-length USP7 0.5-1.0 nM, 0.5 μM Ubiquitin-Rhodamine 110, 30-60 min at 25° C. On the procedure:
Enzymatic Assay to Determine IC50 of USP7 Inhibitors
The IC50 is the concentration of an inhibitor where the measured enzyme activity is reduced by half. In the case of USP7 deubiquitinase, the IC50 of an USP7 inhibitor is the molar concentration of the compound that inhibits 50% of the activity observed in a USP7-mediated-ubiquitin-rhodamine cleavage assay. For the inhibitors disclosed herein, their potency was measured using the following method.
A 45 μl reaction volume containing full-length USP7 (0.5-1.0 nM) in 50 mM HEPES pH 7.5, 150 mM NaCl, 2 mM DTT, 1 mg/ml BSA and 0.05% Tween20 was assembled in wells of 96 well half area black flat bottom plates. Test compounds were first dissolved to 30 mM stocks in DMSO and subsequently introduced to enzyme 15 min after USP7 incubation with DTT at room temperature. The enzymatic reaction was started by adding 0.5 μM Ubiquitin-Rhodamine 110 (final concentration) and allowed to proceed for 30-60 min at 25° C., 250 RPM shaking before Rhodamine fluorescence (485 nm excitation/535 nm emission) was measured using Tecan Spark M10 plate reader. The IC50 values were determined by data fitting to variable slope model four-parameter dose-response curve using GraphPad 7.05.
Usually IC50 stands for the concentration needed to halve the response being measured. Read a low IC50 as greater potency in that assay. `C[C@H]1CNCC(Cc2c(Cl)cc(Cl)cc2-c2ncnn3cc(Cn4c(=O)ccn(C)c4=O)cc23)O1` (single isomer, unassigned) [Example 126, hydrochloride]: the IC50 is under 500 nM.

As for `Cc1cc(Cl)cc(-c2ncnn3cc(CN4C(=O)C5C(C4=O)C5(C)C)cc23)c1CC1CNC[C@H](C)O1` (stereo partly drawn) [Example 27, 3-((4-(5-chloro-3-methyl-2-(((6S)-6-methylmorpholin-2-yl)methyl)phenyl)pyrrolo[2,1-f][1,2,4]triazin-6-yl)methyl)-6,6-dimethyl-3-azabicyclo[3.1.0]hexane-2,4-dione dihydrochloride], the IC50 is under 500 nM.

As for `Cc1cc(Cl)cc(-c2ncnn3cc(Cn4c(=O)c(C)cn(C)c4=O)cc23)c1CC1CNC[C@H](C)O1` (single isomer, unassigned) [Example 115, hydrochloride], the IC50 is under 500 nM.

`Cn1ccc(=O)n(Cc2cc3c(-c4cc(Cl)cc5ccn(C[C@@H]6CNCCO6)c45)ncnn3c2)c1=O` [Example 39, (S)-3-((4-(5-chloro-1-(morpholin-2-ylmethyl)-1H-indol-7-yl)pyrrolo[2,1-f][1,2,4]triazin-6-yl)methyl)-1-methylpyrimidine-2,4(1H,3H)-dione hydrochloride] had an IC50 of under 500 nM.

Take `Cc1cc(Cl)cc(-c2ncnn3cc(Cn4c(=O)ccn(C(C)C)c4=O)cc23)c1CC1CN[C@@H](C)CO1` (single isomer, unassigned) [Example 113, hydrochloride]: the IC50 was under 500 nM.

`CC1(C)C2C(=O)N(Cc3cc4c(-c5cc(C(F)(F)F)cc6ccn(CC7(F)CCNCC7)c56)ncnn4c3)C(=O)C21` (centres unmarked) [Example 22, 3-((4-(1-((4-fluoropiperidin-4-yl)methyl)-5-(trifluoromethyl)-1H-indol-7-yl)pyrrolo[2,1-f][1,2,4]triazin-6-yl)methyl)-6,6-dimethyl-3-azabicyclo[3.1.0]hexane-2,4-dione hydrochloride]: the IC50 is under 500 nM.

Compound `C[C@H]1CN(C2CCNC2)c2c(cc(Cl)cc2-c2ncnn3cc(CN4C(=O)C5C(C4=O)C5(C)C)cc23)O1` (stereo partly drawn) [Example 94, 3-((4-((2S)-7-chloro-2-methyl-4-(pyrrolidin-3-yl)-3,4-dihydro-2H-benzo[b][1,4]oxazin-5-yl)pyrrolo[2,1-f][1,2,4]triazin-6-yl)methyl)-6,6-dimethyl-3-azabicyclo[3.1.0]hexane-2,4-dione hydrochloride] had an IC50 of under 500 nM.

For `Cn1ccc(=O)n(Cc2cc3c(-c4cc(Cl)cc(Cl)c4CC4CNCCO4)ncnn3c2)c1=O` (centres unmarked) [Example 118, 3-((4-(3,5-dichloro-2-(morpholin-2-ylmethyl)phenyl)pyrrolo[2,1-f][1,2,4]triazin-6-yl)methyl)-1-methylpyrimidine-2,4(1H,3H)-dione hydrochloride], the IC50 is under 500 nM.

Compound `Cc1cc(Cl)cc(-c2ncnn3cc(CN4C(=O)C5C(C4=O)C5(C)C)cc23)c1CC1CNCC(C)(C)O1` (racemic) [Example 50, 3-((4-(5-chloro-2-((6,6-dimethylmorpholin-2-yl)methyl)-3-methylphenyl)pyrrolo[2,1-f][1,2,4]triazin-6-yl)methyl)-6,6-dimethyl-3-azabicyclo[3.1.0]hexane-2,4-dione hydrochloride] returned an IC50 of under 500 nM.

Take `CC1(C)C2C(=O)N(Cc3cc4c(-c5cc(Cl)cc6cnn(C[C@@H]7CNCCO7)c56)ncnn4c3)C(=O)C21` (stereo partly drawn) [Example 44, 3-((4-(5-chloro-1-(((S)-morpholin-2-yl)methyl)-1H-indazol-7-yl)pyrrolo[2,1-f][1,2,4]triazin-6-yl)methyl)-6,6-dimethyl-3-azabicyclo[3.1.0]hexane-2,4-dione 2,2,2-trifluoroacetate]: the IC50 was under 500 nM.

The compound `CC1(C)C2C(=O)N(Cc3cc4c(-c5cc(Cl)cc6ccn(CC7(F)CCCNC7)c56)ncnn4c3)C(=O)C21` (centres unmarked) [Example 29, 3-((4-(5-chloro-1-((3-fluoropiperidin-3-yl)methyl)-1H-indol-7-yl)pyrrolo[2,1-f][1,2,4]triazin-6-yl)methyl)-6,6-dimethyl-3-azabicyclo[3.1.0]hexane-2,4-dione hydrochloride] came in with an IC50 of under 500 nM.

`CC1(C)C2C(=O)N(Cc3cc4c(-c5cc(C(F)(F)F)cc6ccn(C[C@@H]7CNCCO7)c56)ncnn4c3)C(=O)C21` (stereo partly drawn) [Example 35, 6,6-dimethyl-3-((4-(1-(((S)-morpholin-2-yl)methyl)-5-(trifluoromethyl)-1H-indol-7-yl)pyrrolo[2,1-f][1,2,4]triazin-6-yl)methyl)-3-azabicyclo[3.1.0]hexane-2,4-dione 2,2,2-trifluoroacetate] gave a 50% inhibitory concentration (IC50) of under 500 nM.

`Cc1cc(Cl)cc(-c2ncnn3cc(CN4C(=O)C5C(C4=O)C5(C)C)cc23)c1CN1[C@@H](C)CNC[C@@H]1C` (stereo partly drawn) [Example 11, 3-((4-(5-chloro-2-(((2S,6S)-2,6-dimethylpiperazin-1-yl)methyl)-3-methylphenyl)pyrrolo[2,1-f][1,2,4]triazin-6-yl)methyl)-6,6-dimethyl-3-azabicyclo[3.1.0]hexane-2,4-dione dihydrochloride]: the IC50 was under 500 nM.

With `Cc1cc(Cl)cc(-c2ncnn3cc(Cn4c(=O)ccn(C5CC5)c4=O)cc23)c1CC1CNC[C@H](C)O1` (single isomer, unassigned) [Example 106, hydrochloride], the IC50 was under 500 nM.

For the compound `Cc1cc(Cl)cc(-c2ncnn3cc(Cn4c(=O)ccn(C)c4=O)cc23)c1CC1CNCCO1` (racemic) [Example 60, 3-((4-(5-chloro-3-methyl-2-(morpholin-2-ylmethyl)phenyl)pyrrolo[2,1-f][1,2,4]triazin-6-yl)methyl)-1-methylpyrimidine-2,4(1H,3H)-dione hydrochloride], the IC50 was under 500 nM.

On to `CC1(C)C2C(=O)N(Cc3cc4c(-c5cc(Cl)cc6ccn(C[C@@H]7CNCCO7)c56)ncnn4c3)C(=O)C21` (single isomer, unassigned) [Example 30, dihydrochloride], for which the IC50 was under 500 nM.

In the case of `Cc1cc(Cl)cc(-c2ncnn3cc(CN4C(=O)CN(C)CC4=O)cc23)c1CC1CNC[C@H](C)O1` (single isomer, unassigned) [Example 117, hydrochloride], the IC50 was under 500 nM.

Compound `CC1(C)C2C(=O)N(Cc3cc4c(-c5cc(Cl)cc6c(F)nn(C[C@@H]7CNCCO7)c56)ncnn4c3)C(=O)C21` (stereo partly drawn) [Example 45, 3-((4-(5-chloro-3-fluoro-1-(((S)-morpholin-2-yl)methyl)-1H-indazol-7-yl)pyrrolo[2,1-f][1,2,4]triazin-6-yl)methyl)-6,6-dimethyl-3-azabicyclo[3.1.0]hexane-2,4-dione hydrochloride] gave a concentration for half-maximal inhibition (IC50) of under 500 nM.

On to `CC1(C)C2C(=O)N(Cc3cc4c(-c5cc(Cl)cc6c5N(C5CCNC5)CCC6)ncnn4c3)C(=O)C21` (single isomer, unassigned) [Example 67, 3-((4-(6-chloro-1-(pyrrolidin-3-yl)-1,2,3,4-tetrahydroquinolin-8-yl)pyrrolo[2,1-f][1,2,4]triazin-6-yl)methyl)-6,6-dimethyl-3-azabicyclo[3.1.0]hexane-2,4-dione hydrochloride], for which the IC50 was under 500 nM.

In the case of `O=C1CNC(=O)N1Cc1cc2c(-c3cc(Cl)cc4ccn(C[C@@H]5CNCCO5)c34)ncnn2c1` [Example 37, (S)-3-((4-(5-chloro-1-(morpholin-2-ylmethyl)-1H-indol-7-yl)pyrrolo[2,1-f][1,2,4]triazin-6-yl)methyl)imidazolidine-2,4-dione hydrochloride], the IC50 is under 500 nM.

As for `Cc1cc(Cl)cc(-c2ncnn3cc(Cn4c(=O)ccn(C)c4=O)cc23)c1C[C@@H]1CNCCO1` (single isomer, unassigned) [Example 82, hydrochloride], the IC50 was under 500 nM.

Compound `O=c1cc[nH]c(=O)n1Cc1cc2c(-c3cc(Cl)cc4ccn(CC5(F)CCNCC5)c34)ncnn2c1` [Example 130, 3-((4-(5-chloro-1-((4-fluoropiperidin-4-yl)methyl)-1H-indol-7-yl)pyrrolo[2,1-f][1,2,4]triazin-6-yl)methyl)pyrimidine-2,4(1H,3H)-dione hydrochloride] had an IC50 of under 500 nM.

`Cc1cc(Cl)cc(-c2ncnn3cc(CN4C(=O)C5C(C4=O)C5(C)C)cc23)c1CC1CN[C@H](C)CO1` (single isomer, unassigned) [Example 41, hydrochloride] came in with a half-inhibitory concentration (IC50) of under 500 nM.

With `Cc1cc(Cl)cc(-c2ncnn3cc(Cn4c(=O)ccn(CC(F)(F)F)c4=O)cc23)c1C[C@@H]1CNCCO1` (single isomer, unassigned) [Example 83, hydrochloride], the IC50 was under 500 nM.

In turn, `CC1(C)C2C(=O)N(Cc3cc4c(-c5cc(Cl)cc6c5N(C5CCNC5)CCC6)ncnn4c3)C(=O)C21` (racemic) [Example 51, 3-((4-(6-chloro-1-(pyrrolidin-3-yl)-1,2,3,4-tetrahydroquinolin-8-yl)pyrrolo[2,1-f][1,2,4]triazin-6-yl)methyl)-6,6-dimethyl-3-azabicyclo[3.1.0]hexane-2,4-dione hydrochloride] displayed an IC50 of under 500 nM.

As for `CC1(C)C2C(=O)N(Cc3cc4c(-c5cc(Cl)cc6ccn(CC7CNCCO7)c56)ncnn4c3)C(=O)C21` (centres unmarked) [Example 24, 3-((4-(5-chloro-1-(morpholin-2-ylmethyl)-1H-indol-7-yl)pyrrolo[2,1-f][1,2,4]triazin-6-yl)methyl)-6,6-dimethyl-3-azabicyclo[3.1.0]hexane-2,4-dione dihydrochloride], the IC50 was under 500 nM.

The values above are taken from patent publication US20240150362A1, “Substituted Pyrrolotriazines” (Molecure S.A., priority 2022, published 2024).
